Experiments:
Assay type in all cases: biochemical
[1] = target: T1, Recombinant human AKR1C3 (17β-HSD5) protein (Homo sapiens, UniProt P42330); experiment: Inhibition of AKR1C3 (17β-hydroxysteroid dehydrogenase type 5) enzyme, fluorescence assay; settings: inhibitor at 500 nM
T1 construct: made in house; host or cells: E. coli
T1 sequence (P42330 1-323): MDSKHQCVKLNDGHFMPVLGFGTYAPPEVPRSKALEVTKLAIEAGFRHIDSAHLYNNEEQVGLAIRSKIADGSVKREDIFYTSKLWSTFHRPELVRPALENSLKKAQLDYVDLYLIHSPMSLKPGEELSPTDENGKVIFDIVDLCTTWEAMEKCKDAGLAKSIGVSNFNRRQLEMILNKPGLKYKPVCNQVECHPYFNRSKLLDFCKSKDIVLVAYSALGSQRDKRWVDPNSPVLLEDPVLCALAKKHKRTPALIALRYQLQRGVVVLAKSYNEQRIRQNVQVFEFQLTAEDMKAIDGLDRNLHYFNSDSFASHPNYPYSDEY
Method in brief: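 Percent inhibition at 500 nM compound, derived from substrate conversion; product alcohol measured by fluorescence (ex 420, em 510 nm) against a 1 μM–10 nM standard curve. Reaction: 27 nM recombinant AKR1C3, 1 μM ketone substrate, 1 mM NADPH, phosphate/EDTA buffer pH 7.4, 1% DMSO, RT for 60–120 min.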

[2] = target: T2, Recombinant human aldo-keto reductase family 1 member C2 (AKR1C2) protein (Homo sapiens, UniProt P52895); experiment: Inhibition of the aldo-keto reductase family 1 member C2, 3H-dihydrotestosterone conversion; settings: inhibitor at 10 μM
T2 construct: made in house; host or cells: Sf-9 insect cells (baculovirus)
T2 sequence (P52895 1-323): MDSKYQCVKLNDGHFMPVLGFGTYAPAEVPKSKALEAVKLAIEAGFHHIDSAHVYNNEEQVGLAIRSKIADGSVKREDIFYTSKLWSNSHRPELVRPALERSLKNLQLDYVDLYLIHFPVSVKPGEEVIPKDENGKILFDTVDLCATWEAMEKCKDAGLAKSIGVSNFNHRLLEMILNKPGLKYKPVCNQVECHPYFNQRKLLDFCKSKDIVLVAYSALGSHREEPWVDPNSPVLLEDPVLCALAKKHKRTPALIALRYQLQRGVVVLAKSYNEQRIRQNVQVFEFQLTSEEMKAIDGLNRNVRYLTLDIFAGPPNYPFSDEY
Method in brief: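 Single-point screen at 10 μM inhibitor, 1% DMSO: [3H]DHT (6.25 nM) reduction to 3α-diol by baculovirus-made AKR1C2 (13.6 nM), pH 7.4 phosphate buffer, 1 mM NADPH, 37 °C for 45 min. Radio-UPLC quantified product versus substrate to give percent inhibition.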

[3] = target: T3, 17β-Hydroxysteroid Dehydrogenase Type 2 Enzyme (17β-HSD2) (Homo sapiens, UniProt P37059); experiment: Inhibition of the 17β-hydroxysteroid dehydrogenase type 2 enzyme, 3H-testosterone conversion; settings: inhibitor at 10 μM
T3 construct: made in house; host or cells: Sf-9 insect cells (baculovirus)
T3 sequence (P37059 1-387): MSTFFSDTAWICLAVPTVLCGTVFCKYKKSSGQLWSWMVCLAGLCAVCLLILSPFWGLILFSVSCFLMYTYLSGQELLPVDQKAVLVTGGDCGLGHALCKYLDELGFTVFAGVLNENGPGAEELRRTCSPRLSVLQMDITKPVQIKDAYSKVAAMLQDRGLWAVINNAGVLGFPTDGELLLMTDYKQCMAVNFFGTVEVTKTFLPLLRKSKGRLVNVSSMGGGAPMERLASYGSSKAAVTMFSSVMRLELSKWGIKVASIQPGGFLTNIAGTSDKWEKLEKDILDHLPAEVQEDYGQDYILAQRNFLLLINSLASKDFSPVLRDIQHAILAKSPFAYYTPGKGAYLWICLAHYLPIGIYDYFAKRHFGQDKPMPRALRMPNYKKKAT
Method in brief: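 Single-point screen at 10 μM inhibitor, 1% DMSO: Sf-9-expressed human enzyme (105 nM), NAD 1 mM, ³H-labelled testosterone 56.25 nM, pH 8.5 phosphate/EDTA buffer, 30 min, room temperature. After TCA quench, substrate and product radioactivity quantified by UPLC with scintillation detection; inhibition percent from conversion.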

Compound | inhibition at 0.5 µM [1] [%] | inhibition at 10 µM [2] [%] | inhibition at 10 µM [3] [%]
N#CC(=C1CCN(C(=O)N2CCc3nocc3C2)CC1)c1cccc(Cl)c1 [Compound 89, 2-(3-chlorophenyl)-2-(1-(4,5,6,7-tetrahydroisoxazolo[4,3-c]pyridine-5-carbonyl)piperidin-4-ylidene)acetonitrile] | 98 | 18 | 15
CCN(CC)C(=O)N1CCC(=C(C#N)c2ccc(Cl)cc2)CC1 [Compound 105, 4-((4-chlorophenyl)(cyano)methylene)-N,N-diethylpiperidine-1-carboxamide] | 100 | 10 | 15
COC1CCN(C(=O)N2CCC(=C(C#N)c3ccc(Cl)s3)CC2)CC1 [Compound 78, 2-(5-chlorothiophen-2-yl)-2-(1-(4-methoxypiperidine-1-carbonyl)piperidin-4-ylidene)acetonitrile] | 99 | 15 | 27
N#CC(=C1CCN(C(=O)N2C[C@@H]3CC[C@@H]2C3)CC1)c1ccc(F)cc1F [Compound 111, 2-(1-((1R,4R)-2-azabicyclo[2.2.1]heptane-2-carbonyl)piperidin-4-ylidene)-2-(2,4-difluorophenyl)acetonitrile] | 95 | 13 | 8
CN(C(=O)N1CCC(=C(C#N)c2ccc(Cl)s2)CC1)C1COC1 [Compound 103, 4-((5-chlorothiophen-2-yl)(cyano)methylene)-N-methyl-N-(oxetan-3-yl)piperidine-1-carboxamide] | 95 | 19 | -4
N#CC(=C1CCN(C(=O)N2CCn3cncc3C2)CC1)c1ccc(Cl)s1 [Compound 121, 2-(5-chlorothiophen-2-yl)-2-(1-(5,6,7,8-tetrahydroimidazo[1,5-a]pyrazine-7-carbonyl)piperidin-4-ylidene)acetonitrile] | 99 | 32 | -7
N#CC(=C1CCN(C(=O)N2CCc3nocc3C2)CC1)c1cccc2[nH]ncc12 [Compound 138, 2-(1H-indazol-4-yl)-2-(1-(4,5,6,7-tetrahydroisoxazolo[4,3-c]pyridine-5-carbonyl)piperidin-4-ylidene)acetonitrile] | 98 | 31 | 13
N#CC(=C1CCN(C(=O)N2C[C@@H]3CC[C@@H]2C3)CC1)c1ccc(F)c(F)c1 [Compound 34, 2-(1-((1R,4R)-2-azabicyclo[2.2.1]heptane-2-carbonyl)piperidin-4-ylidene)-2-(3,4-difluorophenyl)acetonitrile] | 95 | 12 | 21
N#CC(=C1CCN(C(=O)N2CCC(C(F)(F)F)CC2)CC1)c1ccc(F)cc1 [Compound 98, 2-(4-fluorophenyl)-2-(1-(4-(trifluoromethyl)piperidine-1-carbonyl)piperidin-4-ylidene)acetonitrile] | 97 | 8 | 18
N#CC(=C1CCN(C(=O)N2CCC(S(N)(=O)=O)CC2)CC1)c1ccc(Cl)s1 [Compound 77, 1-(4-((5-chlorothiophen-2-yl)(cyano)methylene)piperidine-1-carbonyl)piperidine-4-sulfonamide] | 96 | 24 | 19
N#CC(=C1CCN(C(=O)N2CCC(C(F)(F)F)CC2)CC1)c1ccc(Cl)cn1 [Compound 135, 2-(5-chloropyridin-2-yl)-2-(1-(4-(trifluoromethyl)piperidine-1-carbonyl)piperidin-4-ylidene)acetonitrile] | 92 | 3 | 4

Results, then the molecule that gave them:

inhibition at 0.5 µM [1] [%] | inhibition at 10 µM [2] [%] | inhibition at 10 µM [3] [%] | Compound
97 | 1 | 9 | N#CC(=C1CCN(C(=O)N2CCC(C(F)(F)F)CC2)CC1)c1cccc2[nH]ncc12 [Compound 145, 2-(1H-indazol-4-yl)-2-(1-(4-(trifluoromethyl)piperidine-1-carbonyl)piperidin-4-ylidene) acetonitrile]
95 | 8 | 17 | N#CC(=C1CCN(C(=O)N2CCC(CCCO)CC2)CC1)c1ccc(Cl)cc1 [Compound 132, 2-(4-chlorophenyl)-2-(1-(4-(3-hydroxypropyl)piperidine-1-carbonyl)piperidin-4-ylidene)acetonitrile]
91 | 3 | 4 | N#CC(=C1CCN(C(=O)N2CCC(CCCO)CC2)CC1)c1ccc(F)cc1 [Compound 142, 2-(4-fluorophenyl)-2-(1-(4-(3-hydroxypropyl)piperidine-1-carbonyl)piperidin-4-ylidene)acetonitrile]
99 | 15 | 15 | CCN(CC)C(=O)N1CCC(=C(C#N)c2ccc(F)cc2)CC1 [Compound 5, 4-(cyano(4-fluorophenyl)methylene)-N,N-diethylpiperidine-1-carboxamide]
99 | 0 | 8 | N#CC(=C1CCN(C(=O)N2CCC(O)CC2)CC1)c1ccc(F)cc1 [Compound 4, 2-(4-fluorophenyl)-2-(1-(4-hydroxypiperidine-1-carbonyl)piperidin-4-ylidene)acetonitrile]
97 | 6 | 13 | N#CC(=C1CCN(C(=O)N2CCn3ncnc3C2)CC1)c1ccc(F)cc1 [Compound 26, 2-(4-fluorophenyl)-2-(1-(5,6,7,8-tetrahydro-[1,2,4]triazolo[1,5-a]pyrazine-7-carbonyl)piperidin-4-ylidene)acetonitrile]
95 | 9 | 20 | CC(O)C1CCN(C(=O)N2CCC(=C(C#N)c3ccc(F)cc3)CC2)CC1 (stereo not drawn) [Compound 21, 2-(4-fluorophenyl)-2-(1-(4-(1-hydroxyethyl)piperidine-1-carbonyl)piperidin-4-ylidene)acetonitrile]
80 | 0 | 27 | N#CC(=C1CCN(C(=O)N2CCC(O)CC2)CC1)c1cncc(Cl)c1 [Compound 86, 2-(5-chloropyridin-3-yl)-2-(1-(4-hydroxypiperidine-1-carbonyl)piperidin-4-ylidene)acetonitrile]
99 | 31 | 23 | N#CC(=C1CCN(C(=O)N2CCc3nocc3C2)CC1)c1ccc(C(F)(F)F)cc1 [Compound 87, 2-(1-(4,5,6,7-tetrahydroisoxazolo[4,3-c]pyridine-5-carbonyl)piperidin-4-ylidene)-2-(4-(trifluoromethyl)phenyl)acetonitrile]
99 | 15 | 20 | N#CC(=C1CCN(C(=O)N2CCc3[nH]ncc3C2)CC1)c1ccc(OC(F)(F)F)cc1 [Compound 54, 2-(1-(4,5,6,7-tetrahydro-1H-pyrazolo[4,3-c]pyridine-5-carbonyl)piperidin-4-ylidene)-2-(4-(trifluoromethoxy)phenyl)acetonitrile]
96 | 13 | 6 | N#CC(=C1CCN(C(=O)N2CCC(CO)CC2)CC1)c1ccc(F)cc1F [Compound 39, 2-(2,4-difluorophenyl)-2-(1-(4-(hydroxymethyl)piperidine-1-carbonyl)piperidin-4-ylidene)acetonitrile]

From patent US12637471B2, “Heterocyclic compounds, compositions, methods of preparation and uses thereof” (Organon R&D Finland Ltd, priority 2021, dated 2026)
